Like-named read-outs stand apart in the source and are kept apart here.
How the values were obtained:
[1] = molecular target: T1, non-phosphorylated c-ABL kinase domain (Homo sapiens, UniProt P00519); assay: KinomeScan in vitro binding affinity (Kd), non-phosphorylated c-ABL kinase domain
T1 construct: phosphorylated and non-phosphorylated c-ABL kinase domain; purchased DiscoverRx Corporation (KinomeScan platform)
T1 sequence (P00519 242-493 limits assumed): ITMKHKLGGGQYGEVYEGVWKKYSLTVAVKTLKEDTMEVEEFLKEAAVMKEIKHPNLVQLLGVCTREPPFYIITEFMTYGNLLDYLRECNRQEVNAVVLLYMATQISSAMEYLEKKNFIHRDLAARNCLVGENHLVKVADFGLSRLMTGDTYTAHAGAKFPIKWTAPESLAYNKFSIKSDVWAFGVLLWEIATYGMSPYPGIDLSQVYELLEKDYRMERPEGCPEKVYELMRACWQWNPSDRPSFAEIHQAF
Description: (§1) PROTAC in vitro binding affinities (Kd) to phosphorylated and non-phosphorylated c-ABL kinase domain were determined using the KinomeScan platform (DiscoverRx Corporation). The compounds were solubilized in DMSO and sent to DiscoverRx Corporation as a 10 μM stock solution.

[2] = molecular target: T2, phosphorylated c-ABL kinase domain (Homo sapiens, UniProt P00519); assay: KinomeScan in vitro binding affinity (Kd), phosphorylated c-ABL kinase domain
T2 construct: phosphorylated and non-phosphorylated c-ABL kinase domain; purchased DiscoverRx Corporation (KinomeScan platform)
T2 sequence (P00519 242-493 limits assumed): T1 sequence (P00519 242-493 limits assumed)
Description: as §1

[3] = Table 2, read-out: ABL (non-phosphorylated)
[4] = Table 2, read-out: ABL (phosphorylated)
[5] = Table 1, ABL kinase domain, read-out: ABL (non-phosphorylated) affinity
[6] = Table 1, ABL kinase domain, read-out: ABL (phosphorylated) affinity

| SMILES | Kd [1, 3] [nM] | Kd [2, 4] [nM] | Kd [1, 5] [nM] | Kd [2, 6] [nM] |
| --- | --- | --- | --- | --- |
| Cc1ccc(NC(=O)c2ccc(CN3CCN(CCCCCCOCCOCC(=O)N[C@H](C(=O)N4C[C@H](O)C[C@H]4C(=O)NCc4ccc(-c5scnc5C)cc4)C(C)(C)C)CC3)cc2)cc1Nc1nccc(-c2cccnc2)n1 [IMA-6-2-2-VHL, (2S,4R)-1-((S)-3,3-dimethyl-2-(2-(2-((6-(4-(4-((4-methyl-3-((4-(pyridin-3-yl)pyrimidin-2-yl)amino)phenyl)carbamoyl)benzyl)piperazin-1-yl)hexyl)oxy)ethoxy)acetamido)butanoyl)-4-hydroxy-N-(4-(4-methylthiazol-5-yl)benzyl)pyrrolidine-2-carboxamide] | 5.8 | 98 | – | – |
| Cc1ccc(NC(=O)c2ccc(CN3CCN(CCCCCCOCCOCCOCCOCCOCCOCC(=O)Nc4cccc5c4C(=O)N(C4CCC(=O)NC4=O)C5=O)CC3)cc2)cc1Nc1nccc(-c2cccnc2)n1 (stereo not shown) [IMA-6-(2-)5-2-CRBN, N-(2-(2,6-dioxopiperidin-3-yl)-1,3-dioxoisoindolin-4-yl)-24-(4-(4-((4-methyl-3-((4-(pyridin-3-yl)pyrimidin-2-yl)amino)phenyl)carbamoyl)benzyl)piperazin-1-yl)-3,6,9,12,15,18-hexaoxatetracosanamide] | 3 | 84 | – | – |
| Cc1ccc(NC(=O)c2ccc(CN3CCN(CCCCCCOCCOCCOCCCCCC(=O)N[C@H](C(=O)N4C[C@H](O)C[C@H]4C(=O)NCc4ccc(-c5scnc5C)cc4)C(C)(C)C)CC3)cc2)cc1Nc1nccc(-c2cccnc2)n1 [IMA-6-2-2-6-VHL, (2S,4R)-1-((S)-2-(tert-butyl)-22-(4-(4-((4-methyl-3-((4-(pyridin-3-yl)pyrimidin-2-yl)amino)phenyl)carbamoyl)benzyl)piperazin-1-yl)-4-oxo-10,13,16-trioxa-3-azadocosanoyl)-4-hydroxy-N-(4-(4-methylthiazol-5-yl)benzyl)pyrrolidine-2-carboxamide] | – | – | 4.3 | 93 |
| COc1cc(Nc2c(C#N)cnc3cc(OCCCN4CCN(CCCCCCOCCCCCOCCCCCC(=O)Nc5cccc6c5C(=O)N(C5CCC(=O)NC5=O)C6=O)CC4)c(OC)cc23)c(Cl)cc1Cl (stereo not shown) [BOS-6-5-6-CRBN, 6-((5-((6-(4-(3-((3-cyano-4-((2,4-dichloro-5-methoxyphenyl)amino)-6-methoxyquinolin-7-yl)oxy)propyl)piperazin-1-yl)hexyl)oxy)pentyl)oxy)-N-(2-(2,6-dioxopiperidin-3-yl)-1,3-dioxoisoindolin-4-yl)hexanamide] | 2.8 | 1.1 | – | – |
| Cc1ccc(NC(=O)c2ccc(CN3CCN(CCCCCCOCCOCC(=O)Nc4cccc5c4C(=O)N(C4CCC(=O)NC4=O)C5=O)CC3)cc2)cc1Nc1nccc(-c2cccnc2)n1 (stereo not shown) [IMA-6-2-2-CRBN, 4-((4-(6-(2-(2-((2-(2,6-dioxopiperidin-3-yl)-1,3-dioxoisoindolin-4-yl)amino)-2-oxoethoxy)ethoxy)hexyl)piperazin-1-yl)methyl)-N-(4-methyl-3-((4-(pyridin-3-yl)pyrimidin-2-yl)amino)phenyl)benzamide] | 4.7 | 72 | – | – |
| COc1cc(Nc2c(C#N)cnc3cc(OCCCN4CCN(CCCCCCOCCOCCOCCCCCC(=O)N[C@H](C(=O)N5C[C@H](O)C[C@H]5C(=O)NCc5ccc(-c6scnc6C)cc5)C(C)(C)C)CC4)c(OC)cc23)c(Cl)cc1Cl [BOS-6-2-2-6-VHL, (2S,4R)-1-((S)-2-(tert-butyl)-22-(4-(3-((3-cyano-4-((2,4-dichloro-5-methoxyphenyl)amino)-6-methoxyquinolin-7-yl)oxy)propyl)piperazin-1-yl)-4-oxo-10,13,16-trioxa-3-azadocosanoyl)-4-hydroxy-N-(4-(4-methylthiazol-5-yl)benzyl)pyrrolidine-2-carboxamide] | – | – | 1.4 | 0.63 |
| COc1cc(Nc2c(C#N)cnc3cc(OCCCN4CCN(CCCCCCOCCCCCOCCCCCC(=O)N[C@H](C(=O)N5C[C@H](O)C[C@H]5C(=O)NCc5ccc(-c6scnc6C)cc5)C(C)(C)C)CC4)c(OC)cc23)c(Cl)cc1Cl [BOS-6-5-6-VHL, (2S,4R)-1-((S)-2-(6-((5-((6-(4-(3-((3-cyano-4-((2,4-dichloro-5-methoxyphenyl)amino)-6-methoxyquinolin-7-yl)oxy)propyl)piperazin-1-yl)hexyl)oxy)pentyl)oxy)hexanamido)-3,3-dimethylbutanoyl)-4-hydroxy-N-(4-(4-methylthiazol-5-yl)benzyl)pyrrolidine-2-carboxamide] | 4.6 | 1.5 | – | – |

The next lines start with the values.

| Kd [1, 3] [nM] | Kd [2, 4] [nM] | Kd [1, 5] [nM] | Kd [2, 6] [nM] | SMILES |
| --- | --- | --- | --- | --- |
| 0.28 | 0.19 | – | – | Cc1nc(Nc2ncc(C(=O)Nc3c(C)cccc3Cl)s2)cc(N2CCN(CCCCCCOCCOCC(=O)Nc3cccc4c3C(=O)N(C3CCC(=O)NC3=O)C4=O)CC2)n1 (stereo not shown) [DAS-6-2-2-CRBN, N-(2-chloro-6-methylphenyl)-2-((6-(4-(6-(2-(2-((2-(2,6-dioxopiperidin-3-yl)-1,3-dioxoisoindolin-4-yl)amino)-2-oxoethoxy)ethoxy)hexyl)piperazin-1-yl)-2-methylpyrimidin-4-yl)amino)thiazole-5-carboxamide] |
| 24 | 360 | – | – | Cc1ccc(NC(=O)c2ccc(CN3CCN(CCCCCCOCCCCCOCCCCCC(=O)Nc4cccc5c4C(=O)N(C4CCC(=O)NC4=O)C5=O)CC3)cc2)cc1Nc1nccc(-c2cccnc2)n1 (stereo not shown) [IMA-6-5-6-CRBN, 4-((4-(6-((5-((6-((2-(2,6-dioxopiperidin-3-yl)-1,3-dioxoisoindolin-4-yl)amino)-6-oxohexyl)oxy)pentyl)oxy)hexyl)piperazin-1-yl)methyl)-N-(4-methyl-3-((4-(pyridin-3-yl)pyrimidin-2-yl)amino)phenyl)benzamide] |
| – | – | 6.2 | 110 | Cc1ccc(NC(=O)c2ccc(CN3CCN(CCCCCCOCCOCCOCCCCCC(=O)Nc4cccc5c4C(=O)N(C4CCC(=O)NC4=O)C5=O)CC3)cc2)cc1Nc1nccc(-c2cccnc2)n1 (stereo not shown) [IMA-6-2-2-6-CRBN, 4-((4-(6-(2-(2-((6-((2-(2,6-dioxopiperidin-3-yl)-1,3-dioxoisoindolin-4-yl)amino)-6-oxohexyl)oxy)ethoxy)ethoxy)hexyl)piperazin-1-yl)methyl)-N-(4-methyl-3-((4-(pyridin-3-yl)pyrimidin-2-yl)amino)phenyl)benzamide] |
| 0.91 | 0.55 | – | – | COc1cc(Nc2c(C#N)cnc3cc(OCCCN4CCN(CCCCCCOCCOCCOCCCCCC(=O)Nc5cccc6c5C(=O)N(C5CCC(=O)NC5=O)C6=O)CC4)c(OC)cc23)c(Cl)cc1Cl (stereo not shown) [BOS-6-2-2-6-CRBN, 6-(2-(2-((6-(4-(3-((3-cyano-4-((2,4-dichloro-5-methoxyphenyl)amino)-6-methoxyquinolin-7-yl)oxy)propyl)piperazin-1-yl)hexyl)oxy)ethoxy)ethoxy)-N-(2-(2,6-dioxopiperidin-3-yl)-1,3-dioxoisoindolin-4-yl)hexanamide] |
| 1.3 | 1.4 | – | – | Cc1nc(Nc2ncc(C(=O)Nc3c(C)cccc3Cl)s2)cc(N2CCN(CCCCCCOCCCCCOCCCCCC(=O)Nc3cccc4c3C(=O)N(C3CCC(=O)NC3=O)C4=O)CC2)n1 (stereo not shown) [DAS-6-5-6-CRBN, N-(2-chloro-6-methylphenyl)-2-((6-(4-(6-((5-((6-((2-(2,6-dioxopiperidin-3-yl)-1,3-dioxoisoindolin-4-yl)amino)-6-oxohexyl)oxy)pentyl)oxy)hexyl)piperazin-1-yl)-2-methylpyrimidin-4-yl)amino)thiazole-5-carboxamide] |
| 19 | 46 | – | – | Cc1ccc(NC(=O)c2ccc(CN3CCN(CCCCCCOCCCCCOCCCCCC(=O)N[C@H](C(=O)N4C[C@H](O)C[C@H]4C(=O)NCc4ccc(-c5scnc5C)cc4)C(C)(C)C)CC3)cc2)cc1Nc1nccc(-c2cccnc2)n1 [IMA-6-5-6-VHL, (2S,4R)-1-((S)-3,3-dimethyl-2-(6-((5-((6-(4-(4-((4-methyl-3-((4-(pyridin-3-yl)pyrimidin-2-yl)amino)phenyl)carbamoyl)benzyl)piperazin-1-yl)hexyl)oxy)pentyl)oxy)hexanamido)butanoyl)-4-hydroxy-N-(4-(4-methylthiazol-5-yl)benzyl)pyrrolidine-2-carboxamide] |
| 1.7 | 35 | – | – | Cc1ccc(NC(=O)c2ccc(CN3CCN(CCCCCCOCCOCCOCCOCCOCCOCC(=O)N[C@H](C(=O)N4C[C@H](O)C[C@H]4C(=O)NCc4ccc(-c5scnc5C)cc4)C(C)(C)C)CC3)cc2)cc1Nc1nccc(-c2cccnc2)n1 [IMA-6-(2-)5-2-VHL, (2S,4R)-1-((S)-2-(tert-butyl)-27-(4-(4-((4-methyl-3-((4-(pyridin-3-yl)pyrimidin-2-yl)amino)phenyl)carbamoyl)benzyl)piperazin-1-yl)-4-oxo-6,9,12,15,18,21-hexaoxa-3-azaheptacosanoyl)-4-hydroxy-N-(4-(4-methylthiazol-5-yl)benzyl)pyrrolidine-2-carboxamide] |

Reference: patent US9938264B2, “Proteolysis targeting chimera compounds and methods of preparing and using same” (YALE UNIVERSITY, priority 2015, dated 2018)
